Laboratory results as given in the supplement of paper PMC10307832.

What follows are cell lines tested with COC1=C(C=C(C=C1)C2=CC3=NC=CN3C(=N2)NC4=C(C=CC=N4)C(=O)N)OC [BAY61-3606] + COc1cc2c(Oc3ccc(NC(=O)C4(C(=O)Nc5ccc(F)cc5)CC4)cc3F)ccnc2cc1OCCCN1CCOCC1 [Foretinib] (partner 0.25 µM) (assay: relative viability (nuclei count vs DMSO), 5 days (fraction); higher = more cells survive). Details: first compound 0.02 µM.
Procedure, shortened: (§1)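 The day after seeding in 1536-well plates, lung cancer cell lines were treated by pin tool with a single drug, or with a fixed anchor-drug dose together with five library-drug doses (not always all listed) in √10 steps. After 5 days, a combined fix-and-stain solution (final 0.05% Triton X-100, 1% formaldehyde, 1 ug/ml Hoechst) was added. Nuclei counted on 4× images gave relative viability as treated counts over vehicle counts, reported as the median of duplicate plates.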

NCI-H2342 was tested. Which relative viability did it give?
The relative viability was 1.03.

With NCI-H1623 as the cell line, how does the relative viability read?
The relative viability was 0.841.

For EBC-1, which relative viability is on record?
Its relative viability is 0.105.

For NCI-H2009, which relative viability is on record?
Its relative viability is 1.34.

How did the relative viability turn out when SK-LU-1 was run?
Its relative viability is 0.863.

For SW 1573, which relative viability is on record?
The relative viability was 1.18.

Which relative viability does the source give for NCI-H661 here?
The relative viability was 1.06.

How did the relative viability turn out when NCI-H2228 was run?
The relative viability was 0.891.

For Calu-6, which relative viability is on record?
The relative viability was 0.894.

Which relative viability does the source give for NCI-H1703 here?
Its relative viability is 0.337.

For COR-L23, which relative viability is on record?
Its relative viability is 0.999.

With COR-L 105 as the cell line, how does the relative viability read?
The relative viability was 1.32.

IA-LM was tested. Which relative viability did it give?
Its relative viability is 1.23.

A549 was tested. Which relative viability did it give?
The relative viability was 1.11.

Which relative viability does the source give for NCI-H520 here?
The relative viability was 0.935.

For NCI-H2023, which relative viability is on record?
Its relative viability is 0.864.

NCI-H1299 was tested. Which relative viability did it give?
Its relative viability is 1.12.

With NCI-H1563 as the cell line, how does the relative viability read?
Its relative viability is 1.03.

How did the relative viability turn out when NCI-H1650 was run?
Its relative viability is 1.14.

For SK-MES-1, which relative viability is on record?
Its relative viability is 1.08.

Same assay, conditions: first compound 0.06325 µM

Which relative viability does the source give for NCI-H2342 here?
The relative viability was 1.05.

With NCI-H1623 as the cell line, how does the relative viability read?
Its relative viability is 0.919.

Which relative viability does the source give for EBC-1 here?
Its relative viability is 0.0977.

NCI-H2009 was tested. Which relative viability did it give?
The relative viability was 1.31.

With SK-LU-1 as the cell line, how does the relative viability read?
The relative viability was 0.863.

Which relative viability does the source give for SW 1573 here?
The relative viability was 0.872.

Which relative viability does the source give for NCI-H661 here?
Its relative viability is 1.05.

How did the relative viability turn out when NCI-H2228 was run?
Its relative viability is 0.914.

For Calu-6, which relative viability is on record?
The relative viability was 0.905.

COR-L23 was tested. Which relative viability did it give?
The relative viability was 0.944.

How did the relative viability turn out when COR-L 105 was run?
The relative viability was 1.36.

For IA-LM, which relative viability is on record?
The relative viability was 1.09.

With A549 as the cell line, how does the relative viability read?
The relative viability was 0.989.

How did the relative viability turn out when NCI-H520 was run?
The relative viability was 0.716.

NCI-H2023 was tested. Which relative viability did it give?
Its relative viability is 0.906.

Which relative viability does the source give for NCI-H1299 here?
The relative viability was 1.07.

With NCI-H1563 as the cell line, how does the relative viability read?
Its relative viability is 0.99.

How did the relative viability turn out when NCI-H1650 was run?
The relative viability was 1.02.

SK-MES-1 was tested. Which relative viability did it give?
The relative viability was 0.918.

Same assay, conditions: first compound 0.2 µM

With NCI-H2342 as the cell line, how does the relative viability read?
Its relative viability is 1.02.

NCI-H1623 was tested. Which relative viability did it give?
The relative viability was 0.896.

How did the relative viability turn out when EBC-1 was run?
Its relative viability is 0.0899.

For NCI-H2009, which relative viability is on record?
The relative viability was 1.22.

Which relative viability does the source give for SK-LU-1 here?
The relative viability was 0.745.

With SW 1573 as the cell line, how does the relative viability read?
Its relative viability is 0.81.

How did the relative viability turn out when NCI-H661 was run?
Its relative viability is 0.99.

How did the relative viability turn out when NCI-H2228 was run?
Its relative viability is 0.714.

Calu-6 was tested. Which relative viability did it give?
The relative viability was 0.793.

For NCI-H1703, which relative viability is on record?
Its relative viability is 0.315.

How did the relative viability turn out when COR-L23 was run?
The relative viability was 0.963.

For COR-L 105, which relative viability is on record?
Its relative viability is 0.884.

Which relative viability does the source give for IA-LM here?
The relative viability was 1.01.

For A549, which relative viability is on record?
Its relative viability is 0.853.

With NCI-H520 as the cell line, how does the relative viability read?
The relative viability was 0.839.

Which relative viability does the source give for NCI-H2023 here?
Its relative viability is 1.03.

Which relative viability does the source give for NCI-H1299 here?
Its relative viability is 1.11.

NCI-H1563 was tested. Which relative viability did it give?
The relative viability was 0.893.

Which relative viability does the source give for NCI-H1650 here?
The relative viability was 1.02.

For SK-MES-1, which relative viability is on record?
Its relative viability is 0.85.

Same assay, conditions: first compound 0.6325 µM

With NCI-H2342 as the cell line, how does the relative viability read?
The relative viability was 1.22.

For NCI-H1623, which relative viability is on record?
Its relative viability is 0.864.

EBC-1 was tested. Which relative viability did it give?
Its relative viability is 0.0956.

NCI-H2009 was tested. Which relative viability did it give?
Its relative viability is 1.26.

How did the relative viability turn out when SK-LU-1 was run?
Its relative viability is 0.758.

For SW 1573, which relative viability is on record?
The relative viability was 0.839.

Which relative viability does the source give for NCI-H661 here?
The relative viability was 1.02.

How did the relative viability turn out when NCI-H2228 was run?
The relative viability was 0.858.

Calu-6 was tested. Which relative viability did it give?
The relative viability was 0.773.

NCI-H1703 was tested. Which relative viability did it give?
The relative viability was 0.316.

How did the relative viability turn out when COR-L23 was run?
Its relative viability is 0.992.

With COR-L 105 as the cell line, how does the relative viability read?
Its relative viability is 1.05.

Which relative viability does the source give for IA-LM here?
The relative viability was 1.13.

How did the relative viability turn out when A549 was run?
The relative viability was 0.969.

How did the relative viability turn out when NCI-H520 was run?
Its relative viability is 0.669.

Which relative viability does the source give for NCI-H2023 here?
The relative viability was 0.812.

Which relative viability does the source give for NCI-H1299 here?
The relative viability was 1.03.

With NCI-H1563 as the cell line, how does the relative viability read?
Its relative viability is 0.931.

Which relative viability does the source give for NCI-H1650 here?
The relative viability was 1.34.

Which relative viability does the source give for SK-MES-1 here?
Its relative viability is 0.96.

Same assay, conditions: first compound 2 µM

NCI-H2342 was tested. Which relative viability did it give?
Its relative viability is 0.957.

With NCI-H1623 as the cell line, how does the relative viability read?
Its relative viability is 0.846.

For EBC-1, which relative viability is on record?
Its relative viability is 0.102.

NCI-H2009 was tested. Which relative viability did it give?
Its relative viability is 1.06.

For SK-LU-1, which relative viability is on record?
The relative viability was 0.408.

How did the relative viability turn out when SW 1573 was run?
Its relative viability is 0.757.

How did the relative viability turn out when NCI-H661 was run?
Its relative viability is 0.941.

With NCI-H2228 as the cell line, how does the relative viability read?
The relative viability was 0.645.

How did the relative viability turn out when Calu-6 was run?
The relative viability was 0.617.

Which relative viability does the source give for NCI-H1703 here?
The relative viability was 0.346.

How did the relative viability turn out when COR-L23 was run?
Its relative viability is 0.865.

For COR-L 105, which relative viability is on record?
The relative viability was 0.605.

IA-LM was tested. Which relative viability did it give?
The relative viability was 0.959.

With A549 as the cell line, how does the relative viability read?
Its relative viability is 0.809.

How did the relative viability turn out when NCI-H520 was run?
Its relative viability is 0.744.

NCI-H2023 was tested. Which relative viability did it give?
Its relative viability is 0.812.

For NCI-H1299, which relative viability is on record?
Its relative viability is 1.07.

NCI-H1563 was tested. Which relative viability did it give?
The relative viability was 0.847.

With NCI-H1650 as the cell line, how does the relative viability read?
Its relative viability is 0.498.

How did the relative viability turn out when SK-MES-1 was run?
Its relative viability is 0.839.

The cell lines below were run with COC1=C(C=C(C=C1)C2=CC3=NC=CN3C(=N2)NC4=C(C=CC=N4)C(=O)N)OC [BAY61-3606] + Cc1cc(Nc2cc(N3CCN(C)CC3)nc(Sc3ccc(NC(=O)C4CC4)cc3)n2)n[nH]1 [Tozasertib] (partner 0.1 µM) in the same assay as above. Details: first compound 0.02 µM.
Procedure, shortened: as §1

Which relative viability does the source give for NCI-H2342 here?
The relative viability was 0.574.

For NCI-H1623, which relative viability is on record?
The relative viability was 0.485.

For NCI-H2009, which relative viability is on record?
The relative viability was 0.847.

With SK-LU-1 as the cell line, how does the relative viability read?
Its relative viability is 0.315.

Which relative viability does the source give for SW 1573 here?
The relative viability was 0.168.

NCI-H661 was tested. Which relative viability did it give?
Its relative viability is 0.357.

Which relative viability does the source give for NCI-H2228 here?
Its relative viability is 0.274.

How did the relative viability turn out when NCI-H1648 was run?
Its relative viability is 0.376.

For COR-L23, which relative viability is on record?
The relative viability was 0.203.

Which relative viability does the source give for COR-L 105 here?
Its relative viability is 0.349.

How did the relative viability turn out when NCI-H522 was run?
Its relative viability is 0.562.

Which relative viability does the source give for NCI-H520 here?
Its relative viability is 0.48.

NCI-H2023 was tested. Which relative viability did it give?
Its relative viability is 0.359.

Which relative viability does the source give for NCI-H1650 here?
Its relative viability is 0.362.

For SK-MES-1, which relative viability is on record?
The relative viability was 0.889.

Same assay, conditions: first compound 0.06325 µM

NCI-H2342 was tested. Which relative viability did it give?
The relative viability was 0.466.

For NCI-H1623, which relative viability is on record?
The relative viability was 0.439.

How did the relative viability turn out when NCI-H2009 was run?
The relative viability was 0.648.

For SK-LU-1, which relative viability is on record?
Its relative viability is 0.282.

Which relative viability does the source give for SW 1573 here?
The relative viability was 0.174.

NCI-H661 was tested. Which relative viability did it give?
The relative viability was 0.358.

Which relative viability does the source give for NCI-H2228 here?
The relative viability was 0.173.

NCI-H1648 was tested. Which relative viability did it give?
Its relative viability is 0.356.

With COR-L23 as the cell line, how does the relative viability read?
The relative viability was 0.133.

Which relative viability does the source give for COR-L 105 here?
Its relative viability is 0.334.

How did the relative viability turn out when NCI-H522 was run?
The relative viability was 0.517.

For NCI-H520, which relative viability is on record?
The relative viability was 0.432.

NCI-H2023 was tested. Which relative viability did it give?
The relative viability was 0.225.

For NCI-H1650, which relative viability is on record?
Its relative viability is 0.265.

SK-MES-1 was tested. Which relative viability did it give?
The relative viability was 0.819.

Same assay, conditions: first compound 0.2 µM

For NCI-H2342, which relative viability is on record?
The relative viability was 0.47.

NCI-H1623 was tested. Which relative viability did it give?
The relative viability was 0.458.

Which relative viability does the source give for NCI-H2009 here?
The relative viability was 0.67.

Which relative viability does the source give for SK-LU-1 here?
The relative viability was 0.264.

For SW 1573, which relative viability is on record?
The relative viability was 0.154.

For NCI-H661, which relative viability is on record?
The relative viability was 0.37.

For NCI-H2228, which relative viability is on record?
The relative viability was 0.147.

For NCI-H1648, which relative viability is on record?
Its relative viability is 0.448.

Which relative viability does the source give for COR-L23 here?
The relative viability was 0.148.

With COR-L 105 as the cell line, how does the relative viability read?
The relative viability was 0.339.

NCI-H522 was tested. Which relative viability did it give?
The relative viability was 0.527.

Which relative viability does the source give for NCI-H520 here?
The relative viability was 0.461.

Which relative viability does the source give for NCI-H2023 here?
The relative viability was 0.232.

NCI-H1650 was tested. Which relative viability did it give?
Its relative viability is 0.264.
